The text below walks through data of ChEMBL document CHEMBL1139796, “Novel anti-tuberculosis agents from MCR libraries” (Bioorg Med Chem Lett, 2007).

For this assay, the system named is Mycobacterium tuberculosis. Description: Antimycobacterial activity against Mycobacterium tuberculosis at 12.5 ug/ml. It counts as functional. To be noted: read-out: GI.
`C=CCNC(=O)C(C)(c1ccccc1)N(C(=O)c1cccnc1)C(C)c1ccccc1` (stereo unspecified): the inhibition of growth at 12.5 µg/mL is 83%.
With `C=CCNC(=O)C(CCCCC)N(CCCN1CCOCC1)C(=O)c1cccnc1` (stereo unspecified), the inhibition of growth at 12.5 µg/mL came out at 74%.
With `C=CCNC(=O)C(N(Cc1ccncc1)C(=O)c1cccnc1)C(Cl)(Cl)Cl` (stereo unspecified), the inhibition of growth at 12.5 µg/mL turned out to be 49%.
As to `C=CCNC(=O)C(C)(C(C)C)N(C(=O)c1cccnc1)C1CCCCC1` (stereo unspecified), the inhibition of growth at 12.5 µg/mL is 95%.
With `C=CCNC(=O)C(C)(C)N(C(=O)c1cccnc1)C(C)c1ccccc1` (stereo unspecified), the inhibition of growth at 12.5 µg/mL worked out at 83%.
For `C=CCNC(=O)C(C)(C)N(CC=C)C(=O)c1cccnc1`, the inhibition of growth at 12.5 µg/mL was 76%.
Regarding `C=CCNC(=O)C1(N(CCCn2ccnc2)C(=O)c2cccnc2)CCN(Cc2ccccc2)CC1`, the inhibition of growth at 12.5 µg/mL is 46%.
On to `C=CCNC(=O)C1(N(C(=O)c2cccnc2)C(C)c2ccccc2)CCCCC1` (stereo unspecified), for which the inhibition of growth at 12.5 µg/mL is 74%.
Regarding `C=CCNC(=O)C(C)(C)N(Cc1ccncc1)C(=O)c1cccnc1`, the inhibition of growth at 12.5 µg/mL is 51%.
For the compound `C=CCNC(=O)C(C(C)C)N(CC(C)(C)C)C(=O)c1cccnc1` (stereo unspecified), the inhibition of growth at 12.5 µg/mL was determined as 76%.
As to `C=CCNC(=O)C(N(C(=O)c1cccnc1)C1CCCCC1)C(F)(F)F` (stereo unspecified), the inhibition of growth at 12.5 µg/mL is 60%.
Regarding `C=CCNC(=O)C1(N(C(=O)c2cccnc2)C2CC2)CCCc2cc(OC)ccc21` (stereo unspecified), the inhibition of growth at 12.5 µg/mL was 69%.
With `C=CCNC(=O)C1(N(CCCn2ccnc2)C(=O)c2cccnc2)CCCCC1`, the inhibition of growth at 12.5 µg/mL came out at 43%.
With `C=CCNC(=O)C1(N(CC(C)(C)C)C(=O)c2cccnc2)CCCc2cc(OC)ccc21` (stereo unspecified), the inhibition of growth at 12.5 µg/mL worked out at 72%.
As for `C=CCNC(=O)C(N(C(=O)c1cccnc1)C(C)c1ccccc1)C(F)(F)F` (stereo unspecified), the inhibition of growth at 12.5 µg/mL turned out to be 90%.
Then `C=CCNC(=O)C(CCCC)N(CC(C)(C)C)C(=O)c1cccnc1` (stereo unspecified), with 102%; and `C=CCNC(=O)C(N(C(=O)c1cccnc1)C(C)c1ccccc1)C(Cl)(Cl)Cl` (stereo unspecified), with 82%.
`C=CCNC(=O)C(C)(C(C)C)N(CC(C)(C)C)C(=O)c1cccnc1` (stereo unspecified): the inhibition of growth at 12.5 µg/mL was found to be 62%.
Consider `C=CCNC(=O)C(C(C)C)N(C(=O)c1cccnc1)C(C)c1ccccc1` (stereo unspecified), for which the inhibition of growth at 12.5 µg/mL turned out to be 77%.
On to `C=CCNC(=O)C(C(C)C)N(CCCN1CCOCC1)C(=O)c1cccnc1` (stereo unspecified), for which the inhibition of growth at 12.5 µg/mL was determined as 33%.
In the case of `C=CCNC(=O)C(C)(c1ccccc1)N(CCCn1ccnc1)C(=O)c1cccnc1` (stereo unspecified), the inhibition of growth at 12.5 µg/mL was found to be 71%.
In the case of `C=CCNC(=O)C1(N(C(=O)c2cccnc2)C(C)c2ccccc2)CCN(Cc2ccccc2)CC1` (stereo unspecified), the inhibition of growth at 12.5 µg/mL was 54%.
Turning to `C=CCNC(=O)C(N(CCCn1ccnc1)C(=O)c1cccnc1)C(F)(F)F` (stereo unspecified), the inhibition of growth at 12.5 µg/mL was determined as 71%.
In the case of `C=CCNC(=O)C1(N(C(=O)c2cccnc2)C2CCCCC2)CCN(Cc2ccccc2)CC1`, the inhibition of growth at 12.5 µg/mL was 101%.
Consider `C=CCNC(=O)C(C=C)(CC)N(CC=C)C(=O)c1cccnc1` (stereo unspecified), for which the inhibition of growth at 12.5 µg/mL was determined as 39%.
`C=CCNC(=O)C(N(Cc1ccncc1)C(=O)c1cccnc1)C(F)(F)F` (stereo unspecified): the inhibition of growth at 12.5 µg/mL is 58%.
`C=CCNC(=O)C(C)(C)N(C(=O)c1cccnc1)C1CC1`: the inhibition of growth at 12.5 µg/mL was 64%.
For the compound `C=CCNC(=O)C(CCCC)N(CC=C)C(=O)c1cccnc1` (stereo unspecified), the inhibition of growth at 12.5 µg/mL was 100%.
Consider `C=CCNC(=O)C(C(C)C)N(CCCn1ccnc1)C(=O)c1cccnc1` (stereo unspecified), for which the inhibition of growth at 12.5 µg/mL worked out at 43%.
In the case of `C=CCNC(=O)C(C=C)(CC)N(Cc1ccncc1)C(=O)c1cccnc1` (stereo unspecified), the inhibition of growth at 12.5 µg/mL turned out to be 23%.
As for `C=CCNC(=O)C(C=C)(CC)N(CCCn1ccnc1)C(=O)c1cccnc1` (stereo unspecified), the inhibition of growth at 12.5 µg/mL worked out at 23%.
With `C=CCNC(=O)C1(N(C(=O)c2cccnc2)C2CC2)CCCCC1`, the inhibition of growth at 12.5 µg/mL is 71%.
In the case of `C=CCNC(=O)C1(N(CCCN2CCOCC2)C(=O)c2cccnc2)CCCCC1`, the inhibition of growth at 12.5 µg/mL is 49%.
On to `C=CCNC(=O)C(CCCCC)N(C(=O)c1cccnc1)C(C)c1ccccc1` (stereo unspecified), for which the inhibition of growth at 12.5 µg/mL amounted to 95%.
As for `C=CCNC(=O)C(C)(C(C)C)N(C(=O)c1cccnc1)C1CC1` (stereo unspecified), the figure is 67%; as for `C=CCNC(=O)C1(N(CCCN2CCOCC2)C(=O)c2cccnc2)CCCc2cc(OC)ccc21` (stereo unspecified), 64%.
Take `C=CCNC(=O)C(C)(c1ccccc1)N(C(=O)c1cccnc1)C1CCCCC1` (stereo unspecified): the inhibition of growth at 12.5 µg/mL was determined as 57%.
As for `C=CCNC(=O)C(C(C)C)N(Cc1ccncc1)C(=O)c1cccnc1` (stereo unspecified), the figure is 50%.
As for `C=CCNC(=O)C1(N(CCCn2ccnc2)C(=O)c2cccnc2)CCCc2cc(OC)ccc21` (stereo unspecified), the inhibition of growth at 12.5 µg/mL amounted to 69%.
For the compound `C=CCNC(=O)C(CCCCC)N(C(=O)c1cccnc1)C1CCCCC1` (stereo unspecified), the inhibition of growth at 12.5 µg/mL amounted to 100%.
Then `C=CCNC(=O)C(CCCC)N(Cc1ccncc1)C(=O)c1cccnc1` (stereo unspecified), with 96%; and `C=CCNC(=O)C(N(C(=O)c1cccnc1)C1CCCCC1)C(Cl)(Cl)Cl` (stereo unspecified), with 74%.
For the compound `C=CCNC(=O)C(N(CC=C)C(=O)c1cccnc1)C(Cl)(Cl)Cl` (stereo unspecified), the inhibition of growth at 12.5 µg/mL was 6%.
Take `C=CCNC(=O)C(C(C)C)N(C(=O)c1cccnc1)C1CC1` (stereo unspecified): the inhibition of growth at 12.5 µg/mL was determined as 57%.
Consider `C=CCNC(=O)C(CCCCC)N(CC(C)(C)C)C(=O)c1cccnc1` (stereo unspecified), for which the inhibition of growth at 12.5 µg/mL came out at 73%.
For `C=CCNC(=O)C(C)(C)N(CCCn1ccnc1)C(=O)c1cccnc1`, the inhibition of growth at 12.5 µg/mL was found to be 57%.
`C=CCNC(=O)C(C=C)(CC)N(CC(C)(C)C)C(=O)c1cccnc1` (stereo unspecified): the inhibition of growth at 12.5 µg/mL is 60%.
Turning to `C=CCNC(=O)C1(N(Cc2ccncc2)C(=O)c2cccnc2)CCCCC1`, the inhibition of growth at 12.5 µg/mL was 87%.
With `C=CCNC(=O)C(N(CCCN1CCOCC1)C(=O)c1cccnc1)C(Cl)(Cl)Cl` (stereo unspecified), the inhibition of growth at 12.5 µg/mL stood at 78%.
In the case of `C=CCNC(=O)C(CCCCC)N(Cc1ccncc1)C(=O)c1cccnc1` (stereo unspecified), the inhibition of growth at 12.5 µg/mL worked out at 89%.
For the compound `C=CCNC(=O)C(CCCC)N(C(=O)c1cccnc1)C(C)c1ccccc1` (stereo unspecified), the inhibition of growth at 12.5 µg/mL amounted to 100%.
With `C=CCNC(=O)C(C)(C)N(CC(C)(C)C)C(=O)c1cccnc1`, the inhibition of growth at 12.5 µg/mL worked out at 71%.
With `C=CCNC(=O)C(C=C)(CC)N(C(=O)c1cccnc1)C1CC1` (stereo unspecified), the inhibition of growth at 12.5 µg/mL amounted to 50%.
With `C=CCNC(=O)C(CCCC)N(CCCN1CCOCC1)C(=O)c1cccnc1` (stereo unspecified), the inhibition of growth at 12.5 µg/mL stood at 69%.
As for `C=CCNC(=O)C(CCCC)N(CCCn1ccnc1)C(=O)c1cccnc1` (stereo unspecified), the figure is 89%; as for `C=CCNC(=O)C1(N(CC=C)C(=O)c2cccnc2)CCCc2cc(OC)ccc21` (stereo unspecified), 80%; as for `C=CCNC(=O)C1(N(CCCN2CCOCC2)C(=O)c2cccnc2)CCN(Cc2ccccc2)CC1`, 33%.
Regarding `C=CCNC(=O)C(N(C(=O)c1cccnc1)C1CC1)C(Cl)(Cl)Cl` (stereo unspecified), the inhibition of growth at 12.5 µg/mL worked out at 9%.
Turning to `C=CCNC(=O)C(C)(C(C)C)N(Cc1ccncc1)C(=O)c1cccnc1` (stereo unspecified), the inhibition of growth at 12.5 µg/mL worked out at 52%.
Take `C=CCNC(=O)C1(N(C(=O)c2cccnc2)C2CCCCC2)CCCc2cc(OC)ccc21` (stereo unspecified): the inhibition of growth at 12.5 µg/mL turned out to be 72%.
Then `C=CCNC(=O)C(C)(c1ccccc1)N(C(=O)c1cccnc1)C1CC1` (stereo unspecified), with 72%.
